According to patent publication US8865134B2, “Chewing gum” (Med-Eq AS, priority 2005, dated 2014):

System: amylase enzyme
Test: Amylase inhibition (salivary and intestinal amylase)
Format: biochemical
Details: amylase present in saliva and in the gut

In the case of `O=C(/C=C/c1ccc(O)c(O)c1)O[C@@H]1C[C@](O)(C(=O)O)C[C@@H](O)[C@H]1O` [chlorogenic acid], the “Effect on amylase enzyme” value was “blocks the amylase enzyme”.
